In patent publication US12084472B2 (Ardelyx, Inc., priority 2015, dated 2024):

These compounds were tested against T1, human TGR5 (Homo sapiens, UniProt Q8TDU6) (assay: Cell-based TGR5 assay (cAMP generation, HTRF)). Settings: HEK293 cells stably transfected with human TGR5; cAMP by HTRF; 30 minutes at 37° C.; read-out: pEC50 Human TGR5 (converted).
T1 construct: expressed in transfected cells; host or cells: HEK293
T1 sequence (Q8TDU6 1-330): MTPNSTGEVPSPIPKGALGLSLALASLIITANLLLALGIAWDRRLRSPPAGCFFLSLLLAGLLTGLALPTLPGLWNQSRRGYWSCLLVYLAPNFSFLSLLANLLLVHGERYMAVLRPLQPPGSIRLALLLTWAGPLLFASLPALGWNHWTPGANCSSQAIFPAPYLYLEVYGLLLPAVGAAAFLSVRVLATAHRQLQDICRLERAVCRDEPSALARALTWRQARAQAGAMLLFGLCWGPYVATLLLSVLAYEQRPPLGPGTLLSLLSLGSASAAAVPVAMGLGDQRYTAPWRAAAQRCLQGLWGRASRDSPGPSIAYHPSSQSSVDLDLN
Summary of the method: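 Read-out was HTRF detection of cAMP, converted to concentration via a standard curve and fitted (3-parameter logistic) for pEC50 and maximal response. Agonist stimulation used HEK293 cells stably transfected with human TGR5, incubated 30 min at 37° C in IBMX-containing buffer at 0.05 nM to 10 μM compound.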
`O=C(CO)N(CCCCc1cc(Cl)c(COC2(c3cnccc3-c3ccccc3OC3CC3)CC2)cc1Cl)C[C@H](O)[C@@H](O)[C@H](O)[C@H](O)CO` [Compound I-71, N-{4-[2,5-dichloro-4-({1-[4-(2-cyclopropoxyphenyl)pyridin-3-yl]cyclopropoxy}methyl)phenyl]butyl}-2-hydroxy-N-[(2S,3R,4R,5R)-2,3,4,5,6-pentahydroxyhexyl]acetamide] was tested, and the EC50 was < 100 nM. For `CS(=O)(=O)NCCN(CCCCSc1ccc(Cl)c(CNC2(c3cnccc3-c3ccccc3OC3CC3)CC2)c1)C(=O)[C@@H](O)[C@@H](O)[C@H](O)[C@@H](O)CO` [Compound I-571, (2S,3S,4R,5S)-N-[4-({4-chloro-3-[({1-[4-(2-cyclopropoxyphenyl)pyridin-3-yl]cyclopropyl}amino)methyl]phenyl}sulfanyl)butyl]-2,3,4,5,6-pentahydroxy-N-(2-methanesulfonamidoethyl) hexanamide], the EC50 was < 100 nM. In the case of `CN(C[C@H](O)[C@@H](O)[C@H](O)[C@H](O)CO)C(=O)CCCCc1cc(Cl)c(CNC2(c3cnccc3-c3ccccc3OC3COC3)CC2)cc1Cl` [Compound I-177, 5-(2,5-dichloro-4-{[(1-(4-[2-(oxetan-3-yloxy)phenyl]pyridin-3-yl}cyclopropyl)amino]methyl)phenyl)-N-methyl-N-[(2S,3R,4R,5R)-2,3,4,5,6-pentahydroxyhexyl]pentanamide], the EC50 is reported as < 100 nM. In the case of `O=C(CCCCc1cc(Cl)c(COC2(c3cnccc3-c3ccccc3OC3CC3)CC2)cc1Cl)N1CCN(C[C@H](O)[C@@H](O)[C@@H](O)[C@H](O)CO)CC1` [Compound I-92, 5-(2,5-dichloro-4-((1-(4-(2-cyclopropoxyphenyl)pyridin-3-yl)cyclopropoxy)methyl)phenyl)-1-(4-((2S,3R,4S,5R)-2,3,4,5,6-pentahydroxyhexyl)piperazin-1-yl)pentan-1-one], the EC50 is reported as < 100 nM. `CC(=O)NCCCN(CCCSc1ccc(Cl)c(COC2(c3cnccc3-c3ccccc3OC3CC3)CC2)c1)C(=O)[C@@H](O)[C@@H](O)[C@H](O)[C@@H](O)CO` [Compound I-594, (2S,3S,4R,5S)-N-(3-{[4-chloro-3-({1-[4-(2-cyclopropoxyphenyl)pyridin-3-yl]cyclopropoxy}methyl)phenyl]sulfanyl}propyl)-N-(3-acetamidopropyl)-2,3,4,5,6-pentahydroxyhexanamide] was tested, and the EC50 was < 100 nM. For `CN(C[C@H](O)[C@@H](O)[C@H](O)[C@H](O)CO)C(=O)CCCS(=O)(=O)c1ccc(Cl)c(CNC2(c3cnccc3-c3ccccc3OC3CC3)CC2)c1` [Compound I-646, 4-{4-chloro-3-[({1-[4-(2-cyclopropoxyphenyl)pyridin-3-yl]cyclopropyl}amino)methyl]benzenesulfonyl}-N-methyl-N-[(2S,3R,4R,5R)-2,3,4,5,6-pentahydroxyhexyl]butanamide], the EC50 was < 100 nM. In the case of `O=C(NCCCCN(CCO)S(=O)(=O)c1ccc(Cl)c(COC2(c3cnccc3-c3ccccc3OC3CC3)CC2)c1)NC[C@H](O)[C@@H](O)[C@H](O)[C@H](O)CO` [Compound I-414, 1-{4-[N-(2-hydroxyethyl)4-chloro-3-({1-[4-(2-cyclopropoxyphenyl)pyridin-3-yl]cyclopropoxy}methyl)benzenesulfonamido]butyl}-3-[(2S,3R,4R,5R)-2,3,4,5,6-pentahydroxyhexyl]urea], the EC50 is reported as < 100 nM. For `CC(CCCN(CCCS(C)(=O)=O)C(=O)[C@@H](O)[C@@H](O)[C@H](O)[C@@H](O)CO)c1ccc(Cl)c(CNC2(c3cnccc3-c3ccccc3OC3CC3)CC2)c1` (stereo partly drawn) [Compound I-292, (2S,3S,4R,5S)-N-(4-{4-chloro-3-[({1-[4-(2-cyclopropoxyphenyl)pyridin-3-yl]cyclopropyl}amino)methyl]phenyl}pentyl)-2,3,4,5,6-pentahydroxy-N-(3-methanesulfonylpropyl)hexanamide], the EC50 was < 100 nM. For `CS(=O)(=O)NCCN(CCCSc1ccc(Cl)c(CNC2(c3cnccc3-c3ccccc3OC3CC3)CC2)c1)C(=O)[C@@H](O)[C@@H](O)[C@H](O)[C@@H](O)CO` [Compound I-585, (2S,3S,4R,5S)-N-[3-({4-chloro-3-[({1-[4-(2-cyclopropoxyphenyl)pyridin-3-yl]cyclopropyl}amino)methyl]phenyl}sulfanyl)propyl]-2,3,4,5,6-pentahydroxy-N-(2-methanesulfonamidoethyl) hexanamide], the EC50 was < 100 nM. `Cc1ccc(C(C)CCCC(=O)N2CCN(CC(=O)NC[C@H](O)[C@@H](O)[C@H](O)[C@H](O)CO)CC2)cc1CNC1(c2cnccc2-c2ccccc2OC2CC2)CC1` (stereo partly drawn) [Compound I-371, 2-[4-(5-{3-[({1-[4-(2-cyclopropoxyphenyl)pyridin-3-yl]cyclopropyl}amino)methyl]-4-methylphenyl}hexanoyl)piperazin-1-yl]-N-[(2S,3R,4R,5R)-2,3,4,5,6-pentahydroxyhexyl]acetamide] was tested, and the EC50 was < 100 nM. With `Cc1ccc(SCCCN(CCCCO)C(=O)[C@@H](O)[C@@H](O)[C@H](O)[C@@H](O)CO)cc1CNC1(c2cnccc2-c2ccccc2OC2CC2)CC1` [Compound I-546, (2S,3S,4R,5S)-N-[3-({3-[({1-[4-(2-cyclopropoxyphenyl)pyridin-3-yl]cyclopropyl}amino)methyl]-4-methylphenyl}sulfanyl)propyl]-2,3,4,5,6-pentahydroxy-N-(4-hydroxybutyl) hexanamide] the EC50 was 126 to 1000 nM. In the case of `Cc1cc(COC2(c3cnccc3-c3ccccc3OC3CC3)CC2)c(Cl)cc1CCCCNC(=O)[C@@H](O)[C@@H](O)[C@H](O)[C@@H](O)CO` (stereo in doubt) [Compound I-172, (2S,3S,4R,5S)-N-{4-[5-chloro-4-({1-[4-(2-cyclopropoxyphenyl)pyridin-3-yl]cyclopropoxy)methyl)-2-methylphenyl]butyl}-2,3,4,5,6-pentahydroxyhexanamide], the EC50 is reported as < 100 nM. In the case of `O=C(/C=C/CC1CN(S(=O)(=O)c2ccc(Cl)c(COC3(c4cnccc4-c4ccccc4OC4CC4)CC3)c2)C1)NC[C@H](O)[C@@H](O)[C@H](O)[C@H](O)CO` [Compound I-452, (2E)-4-{1-[4-chloro-3-({1-[4-(2-cyclopropoxyphenyl)pyridin-3-yl]cyclopropoxy}methyl)benzenesulfonyl]azetidin-3-yl}-N-[(2S,3R,4R,5R)-2,3,4,5,6-pentahydroxyhexyl]but-2-enamide], the EC50 is reported as < 100 nM. With `Cc1cc(COC2(c3cnccc3-c3ccccc3OC3CC3)CC2)c(Cl)cc1CCCCC(=O)NC[C@H](O)[C@@H](O)[C@H](O)[C@H](O)CO` [Compound I-145, 5-[5-chloro-4-({1-[4-(2-cyclopropoxyphenyl)pyridin-3-yl]cyclopropoxy}methyl)-2-methylphenyl]-N-[(2S,3R,4R,5R)-2,3,4,5,6-pentahydroxyhexyl]pentanamide] the EC50 was < 100 nM. For `C=C(CCCNC(=O)NC[C@H](O)[C@@H](O)[C@H](O)[C@H](O)CO)c1ccc(Cl)c(CNC2(c3cnccc3-c3ccccc3OC3CC3)CC2)c1` [Compound I-383, 1-(4-{4-chloro-3-[({1-[4-(2-cyclopropoxyphenyl)pyridin-3-yl]cyclopropyl}amino)methyl]phenyl}pent-4-en-1-yl)-3-[(2S,3R,4R,5R)-2,3,4,5,6-pentahydroxyhexyl]urea], the EC50 was < 100 nM. For `CN(C[C@H](O)[C@@H](O)[C@H](O)[C@H](O)CO)C(=O)CCCCc1cc(Cl)c(COC2(c3cnccc3-c3ccccc3OC3COC3)CC2)cc1Cl` [Compound I-192, 5-{2,5-dichloro-4-[(1-{4-[2-(oxetan-3-yloxy)phenyl]pyridin-3-yl}cyclopropoxy)methyl]phenyl}-N-methyl-N-[(2S,3R,4R,5R)-2,3,4,5,6-pentahydroxyhexyl]pentanamide], the EC50 was < 100 nM. In the case of `CC(CCCC(=O)O)c1ccc(Cl)c(CNC2(c3cnccc3-c3ccccc3OC3CC3)CC2)c1` (single isomer, unassigned) [Compound I-248], the EC50 is reported as < 100 nM. In the case of `CN(CCCCNC(=O)NC[C@H](O)[C@@H](O)[C@H](O)[C@H](O)CO)S(=O)(=O)c1ccc(Cl)c(COC2(c3cnccc3-c3ccccc3OC3COC3)CC2)c1` [Compound I-464, 1-(4-{N-methyl4-chloro-3-[(1-{4-[2-(oxetan-3-yloxy)phenyl]pyridin-3-yl}cyclopropoxy)methyl]benzenesulfonamido}butyl)-3-[(2S,3R,4R,5R)-2,3,4,5,6-pentahydroxyhexyl]urea], the EC50 is reported as < 100 nM. In the case of `CC(C)N(CCCCNC(=O)N[C@@H](CO)[C@@H](O)[C@H](O)[C@H](O)CO)S(=O)(=O)c1ccc(Cl)c(COC2(c3cnccc3-c3ccccc3OC3CC3)CCC2)c1` [Compound I-746, 4-chloro-3-((1-(4-(2-cyclopropoxyphenyl)pyridin-3-yl)cyclobutoxy)methyl)-N-isopropyl-N-(4-(3-((2S,3R,4S,5R)-1,3,4,5,6-pentahydroxyhexan-2-yl)ureido)butyl)benzenesulfonamide], the EC50 is reported as < 100 nM. Compound `NC(=O)CCN(C[C@H](O)[C@@H](O)[C@H](O)[C@H](O)CO)C(=O)CCCSc1ccc(Cl)c(COC2(c3cnccc3-c3ccccc3OC3CC3)CC2)c1` [Compound I-675, N-(2-carbamoylethyl)-4-{[4-chloro-3-({1-[4-(2-cyclopropoxyphenyl)pyridin-3-yl]cyclopropoxy}methyl)phenyl]sulfanyl}-N-[(2S,3R,4R,5R)-2,3,4,5,6-pentahydroxyhexyl]butanamide] has an EC50 of 1260 to 10000 nM. For `Cc1cc(COC2(c3cnccc3-c3ccccc3OC3COC3)CC2)c(Cl)cc1CCCCNC(=O)N(C)C[C@H](O)[C@@H](O)[C@H](O)[C@H](O)CO` [Compound I-191, 1-(4-{5-chloro-2-methyl-4-[(1-{4-[2-(oxetan-3-yloxy)phenyl]pyridin-3-yl}cyclopropoxy)methyl]phenyl}butyl)-3-methyl-3-[(2S,3R,4R,5R)-2,3,4,5,6-pentahydroxyhexyl]urea], the EC50 was < 100 nM.
